Measured values taken from PMC5951806, “Rapid labelling and covalent inhibition of intracellular native proteins using ligand-directed N-acyl-N-alkyl sulfonamide” (Nature Communications, 2018).

What was measured:
[1] = target: T1, ATP-citrate synthase (ACLY) (Homo sapiens, UniProt P53396); test: TMT LC-MSMS of 11-labelled proteins; assay type: cell-based
T1 sequence (P53396 1-1101): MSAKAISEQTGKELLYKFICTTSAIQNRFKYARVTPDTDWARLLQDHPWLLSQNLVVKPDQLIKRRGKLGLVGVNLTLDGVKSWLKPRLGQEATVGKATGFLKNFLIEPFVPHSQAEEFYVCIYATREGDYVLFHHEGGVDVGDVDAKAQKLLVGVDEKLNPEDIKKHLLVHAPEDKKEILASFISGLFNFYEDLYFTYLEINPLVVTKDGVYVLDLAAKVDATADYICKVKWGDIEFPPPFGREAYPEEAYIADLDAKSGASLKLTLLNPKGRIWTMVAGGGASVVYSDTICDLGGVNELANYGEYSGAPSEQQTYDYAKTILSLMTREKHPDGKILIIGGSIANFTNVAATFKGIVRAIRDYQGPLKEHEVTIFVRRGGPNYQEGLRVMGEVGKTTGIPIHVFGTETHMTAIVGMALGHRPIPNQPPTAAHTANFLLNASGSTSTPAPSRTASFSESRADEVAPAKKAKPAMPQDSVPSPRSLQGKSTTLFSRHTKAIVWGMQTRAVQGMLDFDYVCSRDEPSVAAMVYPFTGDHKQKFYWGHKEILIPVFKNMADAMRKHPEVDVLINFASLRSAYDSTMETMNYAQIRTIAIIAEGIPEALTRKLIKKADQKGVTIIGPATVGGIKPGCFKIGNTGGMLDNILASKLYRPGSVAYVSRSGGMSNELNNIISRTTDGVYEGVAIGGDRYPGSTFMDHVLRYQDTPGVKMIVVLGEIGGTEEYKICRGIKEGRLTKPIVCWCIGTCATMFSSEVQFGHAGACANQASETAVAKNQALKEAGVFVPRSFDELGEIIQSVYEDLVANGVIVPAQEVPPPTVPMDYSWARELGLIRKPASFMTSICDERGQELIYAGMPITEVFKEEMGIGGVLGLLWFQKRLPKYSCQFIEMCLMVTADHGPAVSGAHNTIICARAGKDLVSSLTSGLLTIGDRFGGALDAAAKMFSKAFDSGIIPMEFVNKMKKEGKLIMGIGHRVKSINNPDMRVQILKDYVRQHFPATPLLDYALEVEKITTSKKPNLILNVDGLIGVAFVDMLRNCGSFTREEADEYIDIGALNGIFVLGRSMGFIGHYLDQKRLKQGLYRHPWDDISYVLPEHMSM

[2] = target: GTP-binding nuclear protein RAN (RAN) (Homo sapiens, UniProt P62826); test: TMT LC-MSMS of 11-labelled proteins; assay type: cell-based
[3] = sheet Merged, SKBR3 cells, 11 0.5 µM 3 h vs DMSO
[4] = sheet Merged, SKBR3 cells, 11 0.5 µM 3 h vs with PU-H71 10 µM

Abundance Ratio: (11) / (11 with PU-H71) ([1]; Exp3, ACLY): 0.932
Abundance Ratio: (11) / (DMSO) ([1]; Exp3, ACLY): 2.236
Abundances (Grouped): 11 ([1]; Exp3, ACLY): 52.1
Abundances (Grouped): 11 with PU-H71 ([1]; Exp3, ACLY): 55.9
Abundance Ratio: (11) / (11 with PU-H71) ([1]; sheet Exp2, ACLY): 0.837
Abundance Ratio: (11) / (DMSO) ([1]; sheet Exp2, ACLY): 2.101
Abundances (Grouped): 11 ([1]; sheet Exp2, ACLY): 33.4
Abundances (Grouped): 11 with PU-H71 ([1]; sheet Exp2, ACLY): 39.9
Abundance Ratio: (11) / (DMSO) [1, 3]: 2.047
Abundance Ratio: (11) / (11 with PU-H71) [1, 4]: 0.851
Abundance Ratio: (11) / (11 with PU-H71) ([2]; Exp3, RAN): 0.98
Abundance Ratio: (11) / (DMSO) ([2]; Exp3, RAN): 2.764
Abundances (Grouped): 11 ([2]; Exp3, RAN): 43.4
Abundances (Grouped): 11 with PU-H71 ([2]; Exp3, RAN): 44.3
Abundance Ratio: (11) / (DMSO) ([2]; sheet Exp1, SKBR3 cells, 11 0.5 µM 3 h vs DMSO): 2.108
Abundance Ratio: (11) / (11 with PU-H71) ([2]; sheet Exp1, SKBR3 cells, 11 0.5 µM 3 h vs with PU-H71 10 µM): 0.767
Abundance Ratio: (11) / (11 with PU-H71) ([2]; sheet Exp2, RAN): 0.778
Abundance Ratio: (11) / (DMSO) ([2]; sheet Exp2, RAN): 2.161
Abundances (Grouped): 11 ([2]; sheet Exp2, RAN): 78
Abundances (Grouped): 11 with PU-H71 ([2]; sheet Exp2, RAN): 100.3
Abundance Ratio: (11) / (DMSO) [2, 3]: 2.599
Abundance Ratio: (11) / (11 with PU-H71) [2, 4]: 0.946
SMILES: CC(=O)Oc1ccc2c(c1)Oc1cc(OC(C)=O)ccc1C21OC(=O)c2cc(C(=O)NCCOCCOCCNC(=O)CCCC(=O)N(CC#N)S(=O)(=O)c3ccc(C(=O)NCCCn4c(Sc5cc6c(cc5I)OCO6)nc5c(N)ncnc54)cc3)ccc21 [compound 11]
